Reference: ChEMBL document CHEMBL1201862, “PubChem BioAssay data set” (2004)
The source made the active and inactive calls.

Tests used:
[1] = target: T1, Short transient receptor potential channel 4 (Mus musculus, UniProt Q9QUQ5); assay: TRPC4 positive allosteric modulators, dose response, cell-based, HEK293 TRPC4/mu-opioid, Fluo-4 calcium, EC20 DAMGO (AID 434941); format: functional
T1 sequence (Q9QUQ5 whole entry): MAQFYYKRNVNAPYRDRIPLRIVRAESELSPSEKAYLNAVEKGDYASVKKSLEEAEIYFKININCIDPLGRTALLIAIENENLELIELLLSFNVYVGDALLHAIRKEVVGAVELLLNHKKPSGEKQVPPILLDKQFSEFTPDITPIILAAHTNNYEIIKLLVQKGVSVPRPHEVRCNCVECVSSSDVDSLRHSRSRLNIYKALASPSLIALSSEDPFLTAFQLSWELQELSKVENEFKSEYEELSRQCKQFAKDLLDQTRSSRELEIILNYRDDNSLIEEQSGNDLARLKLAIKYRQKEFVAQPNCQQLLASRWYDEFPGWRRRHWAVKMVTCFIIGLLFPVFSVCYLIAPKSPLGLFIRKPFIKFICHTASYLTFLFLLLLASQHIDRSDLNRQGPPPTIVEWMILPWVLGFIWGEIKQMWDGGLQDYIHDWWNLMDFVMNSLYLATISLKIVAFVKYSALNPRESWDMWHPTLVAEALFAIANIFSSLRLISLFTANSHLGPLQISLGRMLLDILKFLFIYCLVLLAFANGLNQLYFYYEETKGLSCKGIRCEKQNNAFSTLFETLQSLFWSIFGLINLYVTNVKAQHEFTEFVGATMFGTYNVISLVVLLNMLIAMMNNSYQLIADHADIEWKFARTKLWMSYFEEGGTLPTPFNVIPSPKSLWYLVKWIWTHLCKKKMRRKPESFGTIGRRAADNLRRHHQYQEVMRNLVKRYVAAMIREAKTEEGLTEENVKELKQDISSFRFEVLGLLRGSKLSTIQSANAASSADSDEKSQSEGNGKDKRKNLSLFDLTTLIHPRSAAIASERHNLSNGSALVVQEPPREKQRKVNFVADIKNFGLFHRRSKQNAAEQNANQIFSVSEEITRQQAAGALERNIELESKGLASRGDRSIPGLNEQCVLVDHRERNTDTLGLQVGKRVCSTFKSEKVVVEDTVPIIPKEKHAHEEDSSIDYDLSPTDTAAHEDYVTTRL

[2] = target: T1, Short transient receptor potential channel 4; assay: mouse TRPC4 channel activators, dose response, cell-based, HEK293 TRPC4/mu-opioid, Fluo-4 calcium (AID 434937); format: functional
Cytochrome P450 2D6 = Cytochrome P450 2D6 (Homo sapiens, UniProt P10635);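 also: CYP2D6 member of a cytochrome P450 panel assay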
Cytochrome P450 2C19 = Cytochrome P450 2C19 (Homo sapiens, UniProt P33261); assay: Cytochrome panel assay with activity outcomes. Panel member name: p450-cyp2c19 Compounds with AC50 equal or less than 10 uM are considered active; format: functional; settings: read-out: AC50
Perilipin-1/ABHD5 = Perilipin-1/ABHD5 (Homo sapiens, UniProt O60240+Q8WTS1); assay: Luminescence-based biochemical high throughput dose response assay for inhibitors of the interaction of the lipase co-activator protein, abhydrolase domain containing 5 (ABHD5) with perilipin-1 (PLIN1) (2K validation set). [Related pubchem assays (depositor defined):AID493027, AID493057]
[3] = target: 1-acylglycerol-3-phosphate O-acyltransferase ABHD5/Perilipin-5 (Homo sapiens, UniProt Q00G26+Q8WTS1); assay: Luminescence-based biochemical high throughput dose response assay for inhibitors of the interaction of the lipase co-activator protein, abhydrolase domain containing 5 (ABHD5) with perilipin-5 (MLDP; PLIN5) (2K validation set). [Related pubchem assays (depositor defined):AID493035, AID493241]
[4] = target: Neurotensin receptor type 1 (Homo sapiens, UniProt P30989); format: functional;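 also: Image-based confirmatory dose-response assay measuring agonist activity at NTR1; NTR1-expressing U2OS osteosarcoma cells imaged for beta-arrestin GFP spot formation; agonist potency where compounds increase beta-arrestin recruitment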
Caspase-3 = target: T2, Caspase-3 (Homo sapiens, UniProt P42574); assay: procaspase-3 activation potency of dual hits, dose response, counter-screen for dual procaspase-3/7 activator project, biochemical, absorbance, PC-3 D3A mutant (AID 504328)
T2 sequence (P42574 whole entry): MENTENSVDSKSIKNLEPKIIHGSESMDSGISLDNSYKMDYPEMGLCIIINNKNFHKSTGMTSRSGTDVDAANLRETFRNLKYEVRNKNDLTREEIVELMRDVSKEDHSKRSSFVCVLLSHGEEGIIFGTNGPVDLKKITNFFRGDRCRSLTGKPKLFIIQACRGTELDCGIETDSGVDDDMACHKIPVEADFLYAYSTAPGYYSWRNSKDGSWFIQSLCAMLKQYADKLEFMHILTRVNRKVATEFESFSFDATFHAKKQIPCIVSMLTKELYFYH

Caspase-7 = Caspase-7 (Homo sapiens, UniProt P55210); assay: procaspase-7 activators, dose response, dual procaspase-3/-7 activator project, biochemical, absorbance, human (AID 504330)
[5] = cytotoxicity in NIH/3T3 mouse fibroblasts, dose response, cytotoxicity control, cell-based, mouse embryonic fibroblasts, dry powder, set 2 (AID 493247); format: functional; settings: Fibroblast
Trypanosoma cruzi = assay: growth inhibition of intracellular Trypanosoma cruzi, dose response, cell-based, plate reader, dry powder, set 3 (AID 493197); format: functional
[6] = target: Protein phosphatase methylesterase 1 (Homo sapiens, UniProt Q9Y570); assay: PME-1 inhibitor potency by in-gel ABPP, dose response, selectivity assay for PME-1 inhibitor project, cell lysate, mouse brain cytosol, FP-rhodamine, panel member PME-1 Assay Panel member description: Inhibition of endogenously expressed PME-1 (AID 2366)
[7] = target: T3, Intestinal-type alkaline phosphatase (Homo sapiens, UniProt P09923); assay: Dose Response confirmation of uHTS hits from a small molecule inhibitors of human intestinal alkaline phosphatase via a luminescent assay. [Related pubchem assays (depositor defined):AID2544, AID2574]; format: functional
[8] = target: T3, Intestinal-type alkaline phosphatase; assay: human intestinal alkaline phosphatase activators, dose response, biochemical, luminescence, uHTS hits (AID 463120); format: functional
[9] = target: NACHT, LRR and PYD domains-containing protein 1 (Homo sapiens, UniProt Q9C000); assay: NALP1 inhibitors in yeast, dose response, luminescent (AID 488860); format: functional
Saccharomyces cerevisiae = assay: NALP1 inhibitor project selectivity study, Caspase-1/ASC signal blockade IC50 in S. cerevisiae (AID 488863); format: functional, organism-based

T3 sequence (P09923 whole entry): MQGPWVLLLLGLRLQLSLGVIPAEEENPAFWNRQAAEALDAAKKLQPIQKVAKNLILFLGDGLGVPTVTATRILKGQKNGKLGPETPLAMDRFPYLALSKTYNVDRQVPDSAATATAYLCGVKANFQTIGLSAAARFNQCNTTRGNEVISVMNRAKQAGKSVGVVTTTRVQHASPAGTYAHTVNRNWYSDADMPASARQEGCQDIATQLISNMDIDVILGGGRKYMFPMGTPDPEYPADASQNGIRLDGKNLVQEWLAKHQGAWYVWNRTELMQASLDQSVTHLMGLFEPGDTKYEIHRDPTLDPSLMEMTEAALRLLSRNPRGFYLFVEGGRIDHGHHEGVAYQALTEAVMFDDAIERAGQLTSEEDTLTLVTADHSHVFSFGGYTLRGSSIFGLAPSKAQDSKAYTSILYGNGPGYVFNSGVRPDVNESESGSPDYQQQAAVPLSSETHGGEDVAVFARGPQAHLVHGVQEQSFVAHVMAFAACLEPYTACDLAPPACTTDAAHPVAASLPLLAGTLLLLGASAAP
Cytochrome P450 2D6, sequence (P10635 whole entry): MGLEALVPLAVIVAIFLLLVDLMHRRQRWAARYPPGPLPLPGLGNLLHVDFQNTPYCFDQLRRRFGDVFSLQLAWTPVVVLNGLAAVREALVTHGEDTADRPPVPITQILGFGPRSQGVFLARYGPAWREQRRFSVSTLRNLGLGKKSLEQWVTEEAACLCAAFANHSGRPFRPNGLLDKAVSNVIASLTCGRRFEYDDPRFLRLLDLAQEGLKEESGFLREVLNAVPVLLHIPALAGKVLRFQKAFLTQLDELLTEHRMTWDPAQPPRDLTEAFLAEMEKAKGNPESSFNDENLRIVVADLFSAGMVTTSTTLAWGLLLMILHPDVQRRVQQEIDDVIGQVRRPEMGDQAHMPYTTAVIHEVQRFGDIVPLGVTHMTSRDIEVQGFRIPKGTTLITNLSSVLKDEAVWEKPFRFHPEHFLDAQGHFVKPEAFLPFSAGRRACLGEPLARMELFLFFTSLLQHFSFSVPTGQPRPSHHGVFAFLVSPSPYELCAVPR
Neurotensin receptor type 1, sequence (P30989 whole entry): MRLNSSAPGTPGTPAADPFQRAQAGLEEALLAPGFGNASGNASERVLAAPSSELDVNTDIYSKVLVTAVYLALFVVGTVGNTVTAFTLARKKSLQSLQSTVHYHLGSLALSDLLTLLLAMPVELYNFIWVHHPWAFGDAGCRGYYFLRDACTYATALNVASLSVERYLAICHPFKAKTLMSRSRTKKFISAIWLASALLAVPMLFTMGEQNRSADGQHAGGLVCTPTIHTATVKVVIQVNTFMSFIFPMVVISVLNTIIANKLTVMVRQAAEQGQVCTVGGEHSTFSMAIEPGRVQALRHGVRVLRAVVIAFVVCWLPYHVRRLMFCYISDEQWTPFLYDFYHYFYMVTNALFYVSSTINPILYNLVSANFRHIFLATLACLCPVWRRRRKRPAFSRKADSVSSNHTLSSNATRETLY
Perilipin-1/ABHD5, sequence (Q8WTS1 whole entry, the tested form may be a part): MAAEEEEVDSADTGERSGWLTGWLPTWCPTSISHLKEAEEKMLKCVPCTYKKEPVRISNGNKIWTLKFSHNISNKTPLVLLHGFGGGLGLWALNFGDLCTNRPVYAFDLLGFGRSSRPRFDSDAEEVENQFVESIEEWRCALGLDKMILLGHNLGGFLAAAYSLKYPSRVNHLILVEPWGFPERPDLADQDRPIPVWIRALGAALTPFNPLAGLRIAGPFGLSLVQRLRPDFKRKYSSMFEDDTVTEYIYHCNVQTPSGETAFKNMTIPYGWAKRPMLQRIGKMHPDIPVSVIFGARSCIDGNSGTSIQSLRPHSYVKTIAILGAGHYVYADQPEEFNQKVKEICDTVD
Perilipin-1/ABHD5, sequence (O60240 whole entry, the tested form may be a part): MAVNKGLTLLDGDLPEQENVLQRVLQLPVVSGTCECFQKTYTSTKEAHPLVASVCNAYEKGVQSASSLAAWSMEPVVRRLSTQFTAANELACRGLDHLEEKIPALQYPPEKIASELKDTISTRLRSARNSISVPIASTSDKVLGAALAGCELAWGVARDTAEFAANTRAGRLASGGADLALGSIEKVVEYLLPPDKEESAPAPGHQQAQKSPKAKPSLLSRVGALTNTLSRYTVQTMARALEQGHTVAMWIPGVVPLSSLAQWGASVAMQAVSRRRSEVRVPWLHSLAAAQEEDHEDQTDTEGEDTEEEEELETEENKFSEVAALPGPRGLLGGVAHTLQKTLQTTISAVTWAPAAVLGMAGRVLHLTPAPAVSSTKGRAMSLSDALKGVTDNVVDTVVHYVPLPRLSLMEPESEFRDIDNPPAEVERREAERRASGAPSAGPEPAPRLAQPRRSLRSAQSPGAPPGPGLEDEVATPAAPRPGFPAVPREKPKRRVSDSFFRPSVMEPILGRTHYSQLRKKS
NACHT, LRR and PYD domains-containing protein 1, sequence (Q9C000 1-1212 limits assumed): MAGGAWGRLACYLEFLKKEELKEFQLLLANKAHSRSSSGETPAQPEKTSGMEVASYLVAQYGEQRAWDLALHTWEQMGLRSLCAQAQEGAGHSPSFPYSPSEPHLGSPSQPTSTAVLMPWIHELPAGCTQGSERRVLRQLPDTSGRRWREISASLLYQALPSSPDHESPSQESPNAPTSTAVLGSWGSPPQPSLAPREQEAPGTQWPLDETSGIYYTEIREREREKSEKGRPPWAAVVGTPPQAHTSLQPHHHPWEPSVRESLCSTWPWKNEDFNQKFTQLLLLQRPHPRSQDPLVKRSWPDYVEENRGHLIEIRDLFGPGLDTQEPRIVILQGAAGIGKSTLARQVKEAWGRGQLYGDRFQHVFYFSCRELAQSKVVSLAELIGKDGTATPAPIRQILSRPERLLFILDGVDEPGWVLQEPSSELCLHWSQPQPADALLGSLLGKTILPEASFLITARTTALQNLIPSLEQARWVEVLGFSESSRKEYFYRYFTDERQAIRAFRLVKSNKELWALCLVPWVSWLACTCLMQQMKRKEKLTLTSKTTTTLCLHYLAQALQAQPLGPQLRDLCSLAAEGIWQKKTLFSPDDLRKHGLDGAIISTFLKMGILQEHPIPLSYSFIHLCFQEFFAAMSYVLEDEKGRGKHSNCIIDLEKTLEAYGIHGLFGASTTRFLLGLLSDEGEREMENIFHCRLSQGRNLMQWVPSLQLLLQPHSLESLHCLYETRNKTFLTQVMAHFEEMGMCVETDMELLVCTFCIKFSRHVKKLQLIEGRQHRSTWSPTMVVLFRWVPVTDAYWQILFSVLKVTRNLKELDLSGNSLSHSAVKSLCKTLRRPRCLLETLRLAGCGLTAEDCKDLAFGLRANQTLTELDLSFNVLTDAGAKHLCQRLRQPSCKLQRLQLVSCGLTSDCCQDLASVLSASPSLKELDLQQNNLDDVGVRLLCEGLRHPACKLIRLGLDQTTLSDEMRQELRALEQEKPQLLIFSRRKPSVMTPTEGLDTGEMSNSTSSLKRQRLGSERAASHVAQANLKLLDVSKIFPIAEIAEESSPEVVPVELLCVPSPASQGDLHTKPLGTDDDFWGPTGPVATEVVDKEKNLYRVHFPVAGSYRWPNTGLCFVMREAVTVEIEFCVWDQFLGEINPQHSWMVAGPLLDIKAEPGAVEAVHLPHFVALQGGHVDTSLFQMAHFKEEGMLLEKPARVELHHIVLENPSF
NACHT, LRR and PYD domains-containing protein 1, sequence (Q9C000 1213-1473 limits assumed): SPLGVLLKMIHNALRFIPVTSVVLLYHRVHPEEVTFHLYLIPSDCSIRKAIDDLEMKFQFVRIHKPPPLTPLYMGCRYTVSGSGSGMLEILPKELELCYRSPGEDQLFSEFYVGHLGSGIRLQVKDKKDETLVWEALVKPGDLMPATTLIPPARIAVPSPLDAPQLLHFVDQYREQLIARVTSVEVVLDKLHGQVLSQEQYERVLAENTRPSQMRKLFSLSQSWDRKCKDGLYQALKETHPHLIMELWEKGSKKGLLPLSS
Cytochrome P450 2C19, sequence (P33261 whole entry, the tested form may be a part): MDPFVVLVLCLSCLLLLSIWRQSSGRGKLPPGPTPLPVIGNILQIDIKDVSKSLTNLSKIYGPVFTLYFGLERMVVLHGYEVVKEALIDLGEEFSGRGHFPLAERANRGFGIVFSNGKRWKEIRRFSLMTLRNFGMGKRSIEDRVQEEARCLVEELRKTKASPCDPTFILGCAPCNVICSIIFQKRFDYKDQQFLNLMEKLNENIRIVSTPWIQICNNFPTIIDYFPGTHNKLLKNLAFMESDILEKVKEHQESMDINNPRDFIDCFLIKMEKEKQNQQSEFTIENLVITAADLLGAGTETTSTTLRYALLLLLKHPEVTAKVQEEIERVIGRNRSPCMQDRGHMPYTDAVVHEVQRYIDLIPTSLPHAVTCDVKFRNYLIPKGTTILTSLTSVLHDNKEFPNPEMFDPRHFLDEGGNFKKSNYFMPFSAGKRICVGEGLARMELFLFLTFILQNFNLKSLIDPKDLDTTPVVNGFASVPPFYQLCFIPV
Protein phosphatase methylesterase 1, sequence (Q9Y570 whole entry): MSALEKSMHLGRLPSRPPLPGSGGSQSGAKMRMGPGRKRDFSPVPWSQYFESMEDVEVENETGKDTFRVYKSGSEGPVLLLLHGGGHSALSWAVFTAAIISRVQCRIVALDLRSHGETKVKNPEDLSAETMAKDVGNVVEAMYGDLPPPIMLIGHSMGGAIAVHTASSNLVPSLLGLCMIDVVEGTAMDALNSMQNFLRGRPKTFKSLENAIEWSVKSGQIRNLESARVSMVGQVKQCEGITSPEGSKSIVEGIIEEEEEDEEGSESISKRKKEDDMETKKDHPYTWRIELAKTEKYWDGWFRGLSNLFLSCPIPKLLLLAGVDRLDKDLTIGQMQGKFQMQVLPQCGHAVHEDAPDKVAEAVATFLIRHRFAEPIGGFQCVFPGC

Q: What does the source list for `Cc1cc(OCCNCCO)cc(C)c1Cl`?
A: EC50 [1]: 0.09 µM (active); EC50 [2]: 0.841 µM (active); AC50 (Cytochrome P450 2D6): 25.1 µM (inconclusive); AC50 (Cytochrome P450 2C19): 7.08 µM (inconclusive)

Q: With `O=C1ON=C(c2ccc(Cl)cc2)/C1=C/c1ccc(O)cc1` as the compound, how does the IC50 (Perilipin-1/ABHD5) read?
A: Its IC50 is 2.28 µM (active).

Q: What about the IC50 [3] of the same compound?
A: Its IC50 is 3.1 µM (active).

Q: And the EC50 [4]?
A: Its EC50 is 8.29 µM (active).

Q: For `COc1ccc(-c2cc(C(=O)OC3CCOC3=O)c3ccccc3n2)cc1OC` (stereo unspecified), which EC50 (Caspase-3) is on record?
A: Its EC50 is > 85.3 µM (inactive).

Q: What about the EC50 (Caspase-7) of the same compound?
A: The EC50 was > 85.3 µM (inactive).

Q: For `COc1ccc(CCN(C)C(=O)C2CCCN(Cc3ccc(F)cc3)C2)cc1OC` (stereo unspecified), which AC50 [5] is on record?
A: Its AC50 is 64.7 µM (active).

Q: And the AC50 (Trypanosoma cruzi)?
A: The AC50 was 4.33 µM (active).

Q: With `N#CC(C#N)=Cc1cccn1S(=O)(=O)c1ccc(F)cc1F` as the compound, how does the IC50 [6] read?
A: The IC50 was 20 µM (inactive).

Q: Which results are given for `CCn1cc(CN2CCN(C)C(CCO)C2)c2ccccc21` (stereo unspecified)?
A: IC50 [7]: > 100 µM (inactive); EC50 [8]: > 100 µM (inactive)

Q: Which IC50 [9] does the source give for `O=C(NCCCc1ccccc1)c1ccccc1O` here?
A: The IC50 was 13.1 µM (active).

Q: And the IC50 (Saccharomyces cerevisiae)?
A: The IC50 was 11.5 µM (active).
